Source: PubChem BioAssay (NCI)
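Test compounds were applied to cells in 96-well plates for 48 hours at 5 doses. The concentration for 50% growth inhibition is given as GI50. TGI is the concentration that stops growth completely.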

How the values were obtained:
Experiment in all cases: DTP human tumour cell line panel, 48 h
CCRF-CEM leukemia = tested on: CCRF-CEM leukemia
MALME-3M melanoma = tested on: MALME-3M melanoma
HCT-15 colon = tested on: HCT-15 colon
786-0 renal = tested on: 786-0 renal
MCF7 breast = tested on: MCF7 breast
MDA-MB-435 = tested on: MDA-MB-435
IGROV1 ovarian = tested on: IGROV1 ovarian
HCT-116 colon = tested on: HCT-116 colon
SW-620 colon = tested on: SW-620 colon
HS 578T breast = tested on: HS 578T breast
RXF 393 renal = tested on: RXF 393 renal
EKVX NSCLC = tested on: EKVX NSCLC
OVCAR-3 ovarian = tested on: OVCAR-3 ovarian
HT29 colon = tested on: HT29 colon
SNB-75 CNS = tested on: SNB-75 CNS
NCI/ADR-RES ovarian = tested on: NCI/ADR-RES ovarian
NCI-H460 lung = tested on: NCI-H460 lung
UO-31 renal = tested on: UO-31 renal
RPMI-8226 leukemia = tested on: RPMI-8226 leukemia
SK-MEL-28 melanoma = tested on: SK-MEL-28 melanoma
NCI-H226 lung = tested on: NCI-H226 lung
COLO 205 colon = tested on: COLO 205 colon
MDA-MB-231 breast = tested on: MDA-MB-231 breast
OVCAR-8 ovarian = tested on: OVCAR-8 ovarian
HL-60(TB) leukemia = tested on: HL-60(TB) leukemia
SF-539 CNS = tested on: SF-539 CNS
T-47D breast = tested on: T-47D breast
HOP-62 NSCLC = tested on: HOP-62 NSCLC
SR leukemia = tested on: SR leukemia
SF-295 CNS = tested on: SF-295 CNS
M14 melanoma = tested on: M14 melanoma
K-562 leukemia = tested on: K-562 leukemia
SK-OV-3 ovarian = tested on: SK-OV-3 ovarian
MOLT-4 leukemia = tested on: MOLT-4 leukemia
NCI-H522 lung = tested on: NCI-H522 lung
PC-3 prostate = tested on: PC-3 prostate
A549 NSCLC = tested on: A549 NSCLC
OVCAR-5 ovarian = tested on: OVCAR-5 ovarian
SK-MEL-2 melanoma = tested on: SK-MEL-2 melanoma
UACC-257 melanoma = tested on: UACC-257 melanoma
TK-10 renal = tested on: TK-10 renal
ACHN renal = tested on: ACHN renal
SF-268 CNS = tested on: SF-268 CNS
SN12C renal = tested on: SN12C renal
LOX IMVI melanoma = tested on: LOX IMVI melanoma
DU-145 prostate = tested on: DU-145 prostate
BT-549 breast = tested on: BT-549 breast
OVCAR-4 ovarian = tested on: OVCAR-4 ovarian
SNB-19 CNS = tested on: SNB-19 CNS
KM12 colon = tested on: KM12 colon
U251 CNS = tested on: U251 CNS
UACC-62 melanoma = tested on: UACC-62 melanoma
CAKI-1 renal = tested on: CAKI-1 renal
NCI-H23 lung = tested on: NCI-H23 lung
SK-MEL-5 melanoma = tested on: SK-MEL-5 melanoma
HCC-2998 colon = tested on: HCC-2998 colon
HOP-92 NSCLC = tested on: HOP-92 NSCLC
A498 renal = tested on: A498 renal

## O=C1c2sccc2-c2cccc3cccc1c23 (tested in a mixture with another compound)
CCRF-CEM leukemia
  TGI: 12.8 µM
MALME-3M melanoma
  TGI: 9.06 µM
HCT-15 colon
  TGI: 24.9 µM
786-0 renal
  TGI: > 100 µM
MCF7 breast
  TGI: > 100 µM
MDA-MB-435
  TGI: > 100 µM
IGROV1 ovarian
  TGI: 50.2 µM
HCT-116 colon
  TGI: > 100 µM
SW-620 colon
  TGI: 17.2 µM
HS 578T breast
  TGI: 6.72 µM
RXF 393 renal
  TGI: > 100 µM
EKVX NSCLC
  TGI: 0.105 µM
OVCAR-3 ovarian
  TGI: 67.8 µM
HT29 colon
  TGI: 15.2 µM
SNB-75 CNS
  TGI: 37.3 µM
NCI/ADR-RES ovarian
  TGI: 47.2 µM
NCI-H460 lung
  TGI: 82.6 µM
UO-31 renal
  TGI: 78.3 µM
RPMI-8226 leukemia
  TGI: 0.668 µM
SK-MEL-28 melanoma
  TGI: > 100 µM
NCI-H226 lung
  TGI: 33.9 µM
COLO 205 colon
  TGI: 15.6 µM
MDA-MB-231 breast
  TGI: 54.3 µM
OVCAR-8 ovarian
  TGI: 36.4 µM
HL-60(TB) leukemia
  TGI: 46.1 µM
SF-539 CNS
  TGI: 32.2 µM
T-47D breast
  TGI: 28.2 µM
HOP-62 NSCLC
  TGI: > 100 µM
SR leukemia
  TGI: 2.02 µM
SF-295 CNS
  TGI: 45 µM
M14 melanoma
  TGI: > 100 µM
K-562 leukemia
  TGI: 25.8 µM
SK-OV-3 ovarian
  TGI: > 100 µM
MOLT-4 leukemia
  TGI: 5.2 µM
NCI-H522 lung
  TGI: 57.1 µM
PC-3 prostate
  TGI: 31.6 µM
A549 NSCLC
  TGI: 16.8 µM
OVCAR-5 ovarian
  TGI: 25.5 µM
SK-MEL-2 melanoma
  TGI: > 100 µM
UACC-257 melanoma
  TGI: 38.9 µM
TK-10 renal
  TGI: 22.6 µM
ACHN renal
  TGI: 12.2 µM
SF-268 CNS
  TGI: > 100 µM
SN12C renal
  TGI: 89.4 µM
LOX IMVI melanoma
  TGI: 18.2 µM
DU-145 prostate
  TGI: 7.03 µM
BT-549 breast
  TGI: 25.7 µM
OVCAR-4 ovarian
  TGI: 33.9 µM
SNB-19 CNS
  TGI: 35 µM
KM12 colon
  TGI: 28.6 µM
U251 CNS
  TGI: 23 µM
UACC-62 melanoma
  TGI: 22.6 µM
CAKI-1 renal
  TGI: 24.2 µM

## O=CNCNCCO
CCRF-CEM leukemia
  TGI: > 100 µM
MALME-3M melanoma
  TGI: > 100 µM
HCT-15 colon
  TGI: > 100 µM
786-0 renal
  TGI: > 100 µM
MCF7 breast
  TGI: > 100 µM
IGROV1 ovarian
  TGI: > 100 µM
HCT-116 colon
  TGI: > 100 µM
SW-620 colon
  TGI: > 100 µM
HS 578T breast
  TGI: > 100 µM
RXF 393 renal
  TGI: > 100 µM
EKVX NSCLC
  TGI: > 100 µM
OVCAR-3 ovarian
  TGI: > 100 µM
HT29 colon
  TGI: > 100 µM
SNB-75 CNS
  TGI: > 100 µM
NCI/ADR-RES ovarian
  TGI: > 100 µM
NCI-H23 lung
  TGI: > 100 µM
NCI-H460 lung
  TGI: > 100 µM
UO-31 renal
  TGI: > 100 µM
RPMI-8226 leukemia
  TGI: > 100 µM
SK-MEL-28 melanoma
  TGI: > 100 µM
SK-MEL-5 melanoma
  TGI: > 100 µM
NCI-H226 lung
  TGI: > 100 µM
OVCAR-8 ovarian
  TGI: > 100 µM
HCC-2998 colon
  TGI: > 100 µM
HL-60(TB) leukemia
  TGI: 72.8 µM
T-47D breast
  TGI: > 100 µM
HOP-62 NSCLC
  TGI: > 100 µM
SR leukemia
  TGI: > 100 µM
M14 melanoma
  TGI: > 100 µM
K-562 leukemia
  TGI: > 100 µM
SK-OV-3 ovarian
  TGI: > 100 µM
MOLT-4 leukemia
  TGI: > 100 µM
A549 NSCLC
  TGI: > 100 µM
OVCAR-5 ovarian
  TGI: > 100 µM
SK-MEL-2 melanoma
  TGI: > 100 µM
TK-10 renal
  TGI: > 100 µM
HOP-92 NSCLC
  TGI: > 100 µM
ACHN renal
  TGI: > 100 µM
SF-268 CNS
  TGI: > 100 µM
A498 renal
  TGI: > 100 µM
DU-145 prostate
  TGI: > 100 µM
BT-549 breast
  TGI: > 100 µM
OVCAR-4 ovarian
  TGI: > 100 µM
SNB-19 CNS
  TGI: > 100 µM
U251 CNS
  TGI: > 100 µM
UACC-62 melanoma
  TGI: > 100 µM
CAKI-1 renal
  TGI: > 100 µM

## COc1ccc(NC(=O)C2CCC(CNS(=O)(=O)c3ccccc3)CC2)cc1OC (stereo not given)
CCRF-CEM leukemia
  GI50: > 100 µM
  TGI: > 100 µM
MALME-3M melanoma
  GI50: 40.3 µM
  TGI: > 100 µM
HCT-15 colon
  GI50: > 100 µM
  TGI: > 100 µM
786-0 renal
  GI50: > 100 µM
  TGI: > 100 µM
MCF7 breast
  GI50: > 100 µM
  TGI: > 100 µM
MDA-MB-435
  GI50: > 100 µM
  TGI: > 100 µM
IGROV1 ovarian
  GI50: > 100 µM
  TGI: > 100 µM
HCT-116 colon
  GI50: > 100 µM
  TGI: > 100 µM
SW-620 colon
  GI50: > 100 µM
  TGI: > 100 µM
HS 578T breast
  GI50: 76.5 µM
  TGI: > 100 µM
RXF 393 renal
  GI50: > 100 µM
  TGI: > 100 µM
EKVX NSCLC
  GI50: > 100 µM
  TGI: > 100 µM
OVCAR-3 ovarian
  GI50: > 100 µM
  TGI: > 100 µM
NCI/ADR-RES ovarian
  GI50: > 100 µM
  TGI: > 100 µM
NCI-H23 lung
  GI50: > 100 µM
  TGI: > 100 µM
NCI-H460 lung
  GI50: > 100 µM
  TGI: > 100 µM
UO-31 renal
  GI50: > 100 µM
  TGI: > 100 µM
RPMI-8226 leukemia
  GI50: > 100 µM
  TGI: > 100 µM
SK-MEL-5 melanoma
  GI50: > 100 µM
  TGI: > 100 µM
NCI-H226 lung
  GI50: > 100 µM
  TGI: > 100 µM
MDA-MB-231 breast
  GI50: 35.3 µM
  TGI: > 100 µM
OVCAR-8 ovarian
  GI50: > 100 µM
  TGI: > 100 µM
HCC-2998 colon
  GI50: > 100 µM
  TGI: > 100 µM
HL-60(TB) leukemia
  GI50: > 100 µM
  TGI: > 100 µM
SF-539 CNS
  GI50: > 100 µM
  TGI: > 100 µM
HOP-62 NSCLC
  GI50: 26.8 µM
  TGI: 86.8 µM
SR leukemia
  GI50: 0.542 µM
  TGI: > 100 µM
SF-295 CNS
  GI50: > 100 µM
  TGI: > 100 µM
M14 melanoma
  GI50: > 100 µM
  TGI: > 100 µM
MOLT-4 leukemia
  GI50: > 100 µM
  TGI: > 100 µM
NCI-H522 lung
  GI50: 60.9 µM
  TGI: > 100 µM
PC-3 prostate
  GI50: > 100 µM
  TGI: > 100 µM
A549 NSCLC
  GI50: > 100 µM
  TGI: > 100 µM
OVCAR-5 ovarian
  GI50: > 100 µM
  TGI: > 100 µM
SK-MEL-2 melanoma
  GI50: > 100 µM
  TGI: > 100 µM
UACC-257 melanoma
  GI50: > 100 µM
  TGI: > 100 µM
TK-10 renal
  GI50: > 100 µM
  TGI: > 100 µM
HOP-92 NSCLC
  GI50: > 100 µM
  TGI: > 100 µM
ACHN renal
  GI50: > 100 µM
  TGI: > 100 µM
SF-268 CNS
  GI50: 74.2 µM
  TGI: > 100 µM
A498 renal
  GI50: > 100 µM
  TGI: > 100 µM
SN12C renal
  GI50: 2.69 µM
  TGI: 69.5 µM
LOX IMVI melanoma
  GI50: > 100 µM
  TGI: > 100 µM
DU-145 prostate
  GI50: > 100 µM
  TGI: > 100 µM
BT-549 breast
  GI50: > 100 µM
  TGI: > 100 µM
OVCAR-4 ovarian
  GI50: > 100 µM
  TGI: > 100 µM
KM12 colon
  GI50: > 100 µM
  TGI: > 100 µM
U251 CNS
  GI50: 54 µM
  TGI: > 100 µM
UACC-62 melanoma
  GI50: 54.6 µM
  TGI: > 100 µM
CAKI-1 renal
  GI50: > 100 µM
  TGI: > 100 µM
